# Results reported in US10238714B2, “Method for forming an immune-tolerant site and method for attracting immunosuppressive cells” (KYOTO UNIVERSITY, priority 2015, dated 2019).
# Tests used:
# [1] = tested on: myeloid-derived suppressor cells (MDSCs); assay: Flow cytometry for CD11b/c and granulocytes at site where bFGF-containing agarose rod was embedded; assay type: in vivo, ACI rats; settings: group in which the agarose rod-bFGF was embedded
# Experimental: (§1) In a polystyrene tube with an inner diameter of 4 mm, 4.5 agarose solution was poured, and the tube was then left to stand at normal temperature to allow gelation of the agarose solution. The resulting agarose gel rod was removed from the polystyrene tube, and cut into a piece having a length of 25 mm. Subsequently, the agarose gel rod was stored in a freezer at −30° C. overnight to allow freezing of water. By freeze-drying the frozen agarose rod, a porous dry agarose rod was prepared. To the dry agarose rod, 100 μl of 500 μg/ml bFGF solution (FIBLAST Spray 500, Kaken Pharmaceutical Co., Ltd.) was added dropwise to include the bFGF solution in the dry agarose rod.
# On the day when the agarose rod was to be embedded, streptozotocin (STZ) (60 mg/kg body weight) was administered to ACI rats to induce diabetes. To each of the left side and the right side of the back of each ACI rat, the agarose rod having a length of 25 mm and a diameter of 4 mm containing 50 μg of bFGF was embedded. On Day 7 after the embedding, the agarose rod was pulled out. In the vicinity of each place where the agarose rod had been embedded, formation of connective tissue containing a number of blood vessels was found. […] The cells were then subjected to purification by Percoll density gradient centrifugation to obtain immune cells, and the obtained immune cells were analyzed using a flow cytometer. […]
# [2] = tested on: regulatory T cells (CD4+Foxp3+ cells); assay: Flow cytometry of immune cells at site where bFGF-containing agarose rod was embedded: regulatory T cells; assay type: in vivo, ACI rats; settings: for ratio of Foxp3+ cells among CD4+ cells: STZ-diabetic ACI rats
# Experimental: as §1
# On the day when the agarose rod was to be embedded, streptozotocin (STZ) (60 mg/kg body weight) was administered to ACI rats to induce diabetes. To each of the left side and the right side of the back of each ACI rat, the agarose rod having a length of 25 mm and a diameter of 4 mm containing 50 μg of bFGF was embedded. On Day 7 after the embedding, the agarose rod was pulled out. In the vicinity of each place where the agarose rod had been embedded, formation of connective tissue containing a number of blood vessels was found. This tissue was collected, and then minced with scissors, followed by homogenization. The cells were then subjected to purification by Percoll density gradient centrifugation to obtain immune cells, and the obtained immune cells were analyzed using a flow cytometer.
# The ratio of Foxp3^+ cells among CD4^+ cells was 25.4% on Day 2, 24.4% on Day 7, 24.4% on Day 10, and 26.4% on Day 14 after the bFGF-containing agarose rod was embedded under the skin.
# [3] = tested on: chemokine/cytokine-associated genes; assay: Gene expression analysis of tissue in vicinity of embedded bFGF-containing agarose rod; assay type: in vivo, rat; settings: Day 7 after embedding, versus bFGF-free agarose rod group
# Source text: (§2) On Day 7 after embedding of the bFGF-containing agarose rod by the same operation as in Example 4, the tissue in the vicinity of the place where the rod was embedded was collected. The collected tissue was immediately impregnated with RNA later solution (Life Technologies) to inhibit RNA degradation. RNA in the tissue was extracted by the column method. The extracted RNA was amplified by the Express kit method (Affymetrix) and biotin-labeled, followed by hybridization with a Rat Genome 230 2.0 array (Affymetrix). Signals were read by a Hewlett-Packard GeneArray Scanner G2500A. By such a process, gene expression analysis was carried out for three tissue samples obtained from the vicinities of bFGF-containing agarose rods and three tissue samples obtained from the vicinities of control bFGF-free agarose rods. The obtained fluorescence intensities were standardized and normalized, and then subjected to statistical analysis. The standardized and normalized gene expression level was statistically compared between the bFGF-containing agarose rod group and the control bFGF-free agarose rod group. Genes showing increased expression in the bFGF-containing agarose rod group were plotted such that their values along the X-axis became positive. Log 2 conversion was carried out in terms of the X-axis. […]
# [4] = tested on: CD8+ T cells; assay: Treg suppression assay with CD4+CD25+ cells collected from tissue near the SEK-1005-containing agarose rod; assay type: cell-based, ACI rats; settings: Group 2: CFSE-stained CD8+ T cells, 1 μg/mL anti-CD3 antibody plus 2.5×10^4 CD4+CD25+ cells from Day 10 rod tissue, Day 4.5; Group 1 without these cells 42.4%
# Source text: On Day 10 after embedding of the SEK-1005-containing agarose rod by the same operation as in Example 1, the tissue in the vicinity of the place where the rod was embedded was collected, and then homogenized, followed by collecting cells from the tissue. The cells were subjected to purification by Percoll density gradient centrifugation to obtain immune cells, and CD4^+CD25^+ cells (a fraction containing a large number of tissue-infiltrating regulatory T cells) were collected using MACS magnetic beads.
# CD8^+ T cells were separately prepared from ACI rats, and the cells were then stained with a fluorescent dye, carboxyfluorescein succinimidyl ester (CFSE). On a 96-well plate, 2.5×10^4 CD8^+ T cells and 5×10^4 antigen-presenting cells were plated in each well, and the cell growth was quantitatively evaluated using a flow cytometer on Day 4.5 after the plating. The wells were divided into three groups. In Group 1, 1 μg/mL anti-CD3 antibody was added to stimulate the growth. In Group 2, 1 μg/mL anti-CD3 antibody as well as 2.5×10^4 CD4^+CD25^+ cells were added. In Group 3, no anti-CD3 antibody was added.
# One round of cell division of T cells stained with a fluorescent dye results in a decrease in the fluorescence intensity to half. Another division results in a decrease in the fluorescent intensity to one fourth of the original intensity. […]
# [5] = Blood glucose level after transplantation of pancreatic islets into the site where the SEK-1005-containing agarose rod was embedded; assay type: in vivo; settings: then removed, 1,500 F344 rat islets per cavity, STZ-diabetic ACI rats
# Experimental: On the day when the SEK-1005-containing agarose rod was to be embedded, streptozotocin (STZ) (60 mg/kg body weight) was administered to ACI rats to induce diabetes. Under the skin of each of the left side and the right side of the back of each ACI rat, the agarose rod prepared in the same way as Example 1 was embedded. On Day 2 or Day 10 after the embedding, the agarose rod was removed, and 1,500 pieces of pancreatic islets separated from the pancreases of F344 rats were transplanted to each of the two dorsal subcutaneous cavities formed. After the transplantation, the blood glucose levels of the rats were measured. […] When SEK-1005-free agarose rod was embedded in the STZ-administered rats for 10 days and after removal of the agarose-rod, pancreatic islets were transplanted to the embedded site, the blood glucose levels of the diabetic rats were not decreased.
# [6] = tested on: cytotoxic T cells (CD8+ T cells); assay: Flow cytometry of immune cells from tissue where SEK-1005-containing agarose rod was embedded under the skin: cytotoxic T cells; assay type: in vivo, ACI rats
# Experimental: as §1, with “4.5%” for “4.5”, “50” for “100”, “a” for “500 μg/ml bFGF”, “of 2 mg/ml SEK-1005 in ethanol” for “(FIBLAST Spray 500, Kaken Pharmaceutical Co., Ltd.)”, “SEK-1005” for “bFGF”, “rod. Ethanol was then evaporated by air drying.” for “rod.”
# On the day when the agarose rod was to be embedded, streptozotocin (STZ) (60 mg/kg body weight) was administered to ACI rats to induce diabetes. To each of the left side and the right side of the back of each ACI rat, the agarose rod having a length of 25 mm and a diameter of 4 mm containing 100 μg of SEK-1005 was embedded. […] In the vicinity of each place where the agarose rod had been embedded, formation of connective tissue containing a number of blood vessels was found. This tissue was minced with scissors, and then homogenized, followed by collecting cells from the tissue. The cells were subjected to purification by Percoll density gradient centrifugation to obtain immune cells, and the obtained immune cells were analyzed using a flow cytometer.
# In normal subcutaneous tissues, the ratio is about 30%, and, when a foreign substance is embedded, the ratio increases to not less than 50% in most cases. The action of SEK-1005 suppressed such an increase.
# [7] = tested on: chemokine/cytokine-associated genes; assay: Gene expression analysis of tissue in vicinity of embedded SEK-1005-containing agarose rod; assay type: in vivo, rat; settings: Day 7 after embedding, versus SEK-1005-free agarose rod group
# Source text: as §2, with “SEK-1005-containing” for “bFGF-containing”, “1,” for “4,”, “SEK-1005-free” for “bFGF-free”
# [8] = tested on: regulatory T cells (CD4+Foxp3+ cells); assay: Flow cytometry of immune cells from tissue where SEK-1005-containing agarose rod was embedded under the skin: regulatory T cells; assay type: in vivo, ACI rats; settings: for ratio of Foxp3+ cells among CD4+ cells: STZ-diabetic ACI rats
# Experimental: as §1, with “4.5%” for “4.5”, “50” for “100”, “a” for “500 μg/ml bFGF”, “of 2 mg/ml SEK-1005 in ethanol” for “(FIBLAST Spray 500, Kaken Pharmaceutical Co., Ltd.)”, “SEK-1005” for “bFGF”, “rod. Ethanol was then evaporated by air drying.” for “rod.”
# (§3) On the day when the agarose rod was to be embedded, streptozotocin (STZ) (60 mg/kg body weight) was administered to ACI rats to induce diabetes. To each of the left side and the right side of the back of each ACI rat, the agarose rod having a length of 25 mm and a diameter of 4 mm containing 100 μg of SEK-1005 was embedded. On Day 10 after the embedding, the agarose rod was removed. In the vicinity of each place where the agarose rod had been embedded, formation of connective tissue containing a number of blood vessels was found. This tissue was minced with scissors, and then homogenized, followed by collecting cells from the tissue. The cells were subjected to purification by Percoll density gradient centrifugation to obtain immune cells, and the obtained immune cells were analyzed using a flow cytometer.
# The ratio of Foxp3^+ cells among CD4^+ cells was 18.3% on Day 2, 20.8% on Day 7, 23.3% on Day 10, and 27.3% on Day 14 after the SEK-1005-containing agarose rod was embedded under the skin.
# [9] = tested on: TGF-β1; assay: TGF-β1 concentration in the exudate at the site of the SEK-1005-containing agarose rod; assay type: in vivo, ACI rats
# Experimental: as §1, with “4.5%” for “4.5”, “50” for “100”, “a” for “500 μg/ml bFGF”, “of 2 mg/ml SEK-1005 in ethanol” for “(FIBLAST Spray 500, Kaken Pharmaceutical Co., Ltd.)”, “SEK-1005” for “bFGF”, “rod. Ethanol was then evaporated by air drying.” for “rod.”
# as §3
# The TGF-β1 concentration in the exudate was measured. The TGF-β1 concentration was 0.7±0.1 ng/ml until Day 7 after the SEK-1005-containing agarose rod was embedded. […] This was about 3 times the concentration in a treated group in which an SEK-1005-free agarose rod was embedded.
molecule,measurement,setting,value
"bFGF: basic fibroblast growth factor; bFGF solution (FIBLAST Spray 500, Kaken Pharmaceutical Co., Ltd.)",granulocyte marker,[1],increase
same,myeloid-derived suppressor cells (MDSCs),[1],induced
same,ratio of Foxp3+ cells among CD4+ cells,[2]; Day 2 after rod with 50 μg bFGF embedded under the skin,25.4%
same,ratio of Foxp3+ cells among CD4+ cells,[2]; Day 7 after rod with 50 μg bFGF embedded under the skin,24.4%
same,ratio of Foxp3+ cells among CD4+ cells,[2]; Day 10 after rod with 50 μg bFGF embedded under the skin,24.4%
same,ratio of Foxp3+ cells among CD4+ cells,[2]; Day 14 after rod with 50 μg bFGF embedded under the skin,26.4%
same,increase of ratio of regulatory T cells,[2]; versus about 10% in normal subcutaneous tissues and bFGF-free agarose rod-embedded rats,2- to 3 fold
same,expression of genes associated with migration/induction of regulatory T cells among chemokine/cytokine-associated genes,[3],significant increase
same,expression of genes not associated with migration/induction of regulatory T cells among chemokine/cytokine-associated genes,[3],significant decrease
"CC(C)CC1CCC(O)(C(C)(O)C(=O)NC2C(=O)N3NCCCC3C(=O)N(O)C(C)C(=O)N(C)C(Cc3ccccc3)C(=O)N3NCCCC3C(=O)NC(CO)C(=O)OC2C(C)C)OC1C (stereo not drawn) [SEK-1005, Ser, 3-hydroxy-N-[2-hydroxy-1-oxo-2-tetrahydro-2-hydroxy-6-methyl-5-(2-methylpropyl)-2H-pyran-2-yl-propyl]-Leu-Pip(hexahydro-3-pyridazinecarbonyl)-N-hydroxy-Ala-N-methyl-Phe-Pip-rho-lactone]",ratio of cells exhibiting decreased fluorescence intensity due to cell division,[4],13.4%
same,blood glucose levels after transplantation of pancreatic islets,[5]; rod embedded for ten days,normalized
same,blood glucose levels after transplantation of pancreatic islets,[5]; rod embedded for two days,> 400 mg/dL
same,ratio of cytotoxic T cells (CD8+ T cells) to CD4+ cells among CD3+ cells,[6]; Day 2 after SEK-1005-containing agarose rod embedded under the skin,36.1%
same,ratio of cytotoxic T cells (CD8+ T cells) to CD4+ cells among CD3+ cells,[6]; Day 7 after SEK-1005-containing agarose rod embedded under the skin,33.7%
same,ratio of cytotoxic T cells (CD8+ T cells) to CD4+ cells among CD3+ cells,[6]; Day 10 after SEK-1005-containing agarose rod embedded under the skin,25.5%
same,ratio of cytotoxic T cells (CD8+ T cells) to CD4+ cells among CD3+ cells,[6]; Day 14 after SEK-1005-containing agarose rod embedded under the skin,23.9%
same,expression of genes associated with migration/induction of regulatory T cells among chemokine/cytokine-associated genes,[7],significant increase
same,expression of genes not associated with migration/induction of regulatory T cells among chemokine/cytokine-associated genes,[7],significant decrease
same,ratio of Foxp3+ cells among CD4+ cells,[8]; Day 2 after rod with 100 μg SEK-1005 embedded under the skin,18.3%
same,ratio of Foxp3+ cells among CD4+ cells,[8]; Day 7 after rod with 100 μg SEK-1005 embedded under the skin,20.8%
same,ratio of Foxp3+ cells among CD4+ cells,[8]; Day 10 after rod with 100 μg SEK-1005 embedded under the skin,23.3%
same,ratio of Foxp3+ cells among CD4+ cells,[8]; Day 14 after rod with 100 μg SEK-1005 embedded under the skin,27.3%
same,increase of ratio of regulatory T cells (CD4+Foxp3+ cells),[8]; versus about 10% in normal subcutaneous tissues,2- to 3 fold
same,TGF-β1 concentration in the exudate,[9]; Day 10 after the embedding,2.0 ± 1.0 ng/mL
same,TGF-β1 concentration relative to SEK-1005-free agarose rod group,[9]; Day 10 after the embedding,about 3 times
same,TGF-β1 concentration in the exudate,[9]; until Day 7 after the rod was embedded,0.7 ± 0.1 ng/mL
